{"source": "patent US9808008B2", "about": "“Synergistic pesticidal compositions and related methods” (Dow AgroSciences LLC, priority 2013, dated 2017)", "format_in_all_cases": "in vivo", "key": {"[1]": {"tested_on": "Western plant bug (Lygus bug), Lygus hesperus (Knight)", "test": "Treated bean piece bioassay against Western plant bug (Lygus bug), synergy by Colby's equation", "conditions": "Lygus bugs", "excerpt": "The method described in Colby S. R., “Calculating Synergistic and Antagonistic Responses of Herbicide Combinations,” Weeds, 1967, 15, 20-22 was used to determine an existence of synergic effect between the nAChR allosteric activator compound and the pesticide (I), (II), or any agriculturally acceptable salt thereof in the formulated pesticidal composition. In this method, the percent insect control of the formulated pesticidal composition as observed in the study was compared to the “expected” percent control (E) as calculated by equation (1) (hereinafter “Colby's equation”) below: [formula] where X is the percentage of control with the first pesticide at a given rate (p), Y is the percentage of control with the second pesticide at a given rate (q), and E is the expected control by the first and second pesticide at a rate of p+q. […] A pesticidal composition was prepared by thoroughly mixing about 0.04 weight % of compound I with about 0.00125 weight % of spinetoram. The active compounds were formulated in a 10% acetone solution with 0.025% non-ionic surfactant, TWEEN® 20. Bioassays were performed for each different active solution. Bean pieces (about one inch-long) were used for the tests. Four bean pieces were placed in each tested active solution and left there for 10 minutes. Bean pieces were taken out of the active solution, and each piece was placed in a well in a 32-well tray and allowed to air dry. Three third-instar nymphs of Western plant bug (Lygus bug), Lygus hesperus (Knight), were infested into each well. The percent control of the pesticidal composition against Lygus bug was determined as the “Observed” action, and compared to those obtained by using about 0.04 weight % of compound I, and using about 0.00125 weight % of spinetoram alone. The “Colby's Expected Action” was calculated using Colby's equation as discussed previously. A pesticidal composition was prepared by thoroughly mixing about 0.04 weight % of compound I with about 0.005 weight % of spinetoram. The bioassays were performed wherein different active compounds were tested against Western plant bug (Lygus bug), Lygus hesperus (Knight), using the procedure described in example 4A."}, "[2]": {"tested_on": "cotton aphid, Aphis gossypii (Glover)", "test": "Track-sprayed cotton plant bioassay against cotton aphid, synergy by Colby's equation", "conditions": "Spinetoram alone, dose rate 0.005 weight %", "excerpt": "The method described in Colby S. R., “Calculating Synergistic and Antagonistic Responses of Herbicide Combinations,” Weeds, 1967, 15, 20-22 was used to determine an existence of synergic effect between the nAChR allosteric activator compound and the pesticide (I), (II), or any agriculturally acceptable salt thereof in the formulated pesticidal composition. In this method, the percent insect control of the formulated pesticidal composition as observed in the study was compared to the “expected” percent control (E) as calculated by equation (1) (hereinafter “Colby's equation”) below: [formula] where X is the percentage of control with the first pesticide at a given rate (p), Y is the percentage of control with the second pesticide at a given rate (q), and E is the expected control by the first and second pesticide at a rate of p+q. […] The percent control of the pesticidal composition against cotton aphid, Aphis gossypii (Glover), was determined as the “Observed” action, and compared to those obtained by using about 0.0020 weight % of compound II, and using about 0.005 weight % of spinetoram alone. The “Colby's Expected Action” was calculated using Colby's equation as discussed previously."}, "[3]": {"tested_on": "diamondback moth, Plutella xylostella", "test": "Track-sprayed cabbage plant bioassay against diamondback moth, synergy by Colby's equation", "conditions": "Spinetoram alone, dose rate 0.0003125 weight %", "excerpt": "The method described in Colby S. R., “Calculating Synergistic and Antagonistic Responses of Herbicide Combinations,” Weeds, 1967, 15, 20-22 was used to determine an existence of synergic effect between the nAChR allosteric activator compound and the pesticide (I), (II), or any agriculturally acceptable salt thereof in the formulated pesticidal composition. In this method, the percent insect control of the formulated pesticidal composition as observed in the study was compared to the “expected” percent control (E) as calculated by equation (1) (hereinafter “Colby's equation”) below: [formula] where X is the percentage of control with the first pesticide at a given rate (p), Y is the percentage of control with the second pesticide at a given rate (q), and E is the expected control by the first and second pesticide at a rate of p+q. […] Bioassays were performed for different active compounds. Cabbage plants with about two to three new-growth-true leaf stage were treated with different active compounds using a track sprayer at a volume of 400 L/Ha. Three second instar diamondback moth, Plutella xylostella, were infested onto each leaf disc. […] The “Colby's Expected Action” was calculated using Colby's equation as discussed previously."}, "[4]": {"tested_on": "South American brown stink bug, Euschistus heros", "test": "Treated bean piece bioassay against South American brown stink bug, synergy by Colby's equation", "conditions": "Spinetoram alone, dose rate 0.0000039 weight %", "excerpt": "The method described in Colby S. R., “Calculating Synergistic and Antagonistic Responses of Herbicide Combinations,” Weeds, 1967, 15, 20-22 was used to determine an existence of synergic effect between the nAChR allosteric activator compound and the pesticide (I), (II), or any agriculturally acceptable salt thereof in the formulated pesticidal composition. In this method, the percent insect control of the formulated pesticidal composition as observed in the study was compared to the “expected” percent control (E) as calculated by equation (1) (hereinafter “Colby's equation”) below: [formula] where X is the percentage of control with the first pesticide at a given rate (p), Y is the percentage of control with the second pesticide at a given rate (q), and E is the expected control by the first and second pesticide at a rate of p+q. […] The percent control of the pesticidal composition against South American brown stink bug, Euschistus heros, was determined as the “Observed” action, and compared to those obtained by using about 0.04 weight % of compound I, and using about 0.0000039 weight % of spinetoram alone. The “Colby's Expected Action” was calculated using Colby's equation as discussed previously."}}}
{"compound": "CCN(C(=O)CCSCCC(F)(F)F)c1cn(-c2cccnc2)nc1Cl", "note": "[Compound I, N-(3-chloro-1-(pyridin-3-yl)-1H-pyrazol-4-yl)-N-ethyl-3-((3,3,3-trifluoropropyl)thio)propanamide]", "values": [{"measurement": "% Control Three Days After Treatment", "setting": "[1]; Example 8A, Compound I alone, dose rate 0.04 weight %", "value": "no control"}, {"measurement": "% Control Three Days After Treatment", "setting": "[1]; Example 8B, Compound I alone, dose rate 0.04 weight %", "value": 0, "unit": "%"}, {"measurement": "% Control Three Days After Treatment", "setting": "[1]; Example 8B, Compound I alone, dose rate 0.04 weight %, listed as compound I", "value": "no control"}]}
{"compound": "Spinetoram", "values": [{"measurement": "% Control Three Days After Treatment", "setting": "[2]", "value": 2, "unit": "%"}, {"measurement": "% Control Three Days After Treatment", "setting": "[3]", "value": 54.17, "unit": "%"}, {"measurement": "% Control Four Days After Treatment", "setting": "[4]", "value": 25, "unit": "%"}, {"measurement": "% Control Three Days After Treatment", "setting": "[1]; Example 8A, Spinetoram alone, dose rate 0.00125 weight %", "value": 0, "unit": "%"}, {"measurement": "% Control Three Days After Treatment", "setting": "[1]; Example 8A, Spinetoram alone, dose rate 0.00125 weight %, listed as spinetoram", "value": "no control"}, {"measurement": "% Control Three Days After Treatment", "setting": "[1]; Example 8B, Spinetoram alone, dose rate 0.005 weight %", "value": 0, "unit": "%"}, {"measurement": "% Control Three Days After Treatment", "setting": "[1]; Example 8B, Spinetoram alone, dose rate 0.005 weight %, listed as spinetoram", "value": "no control"}]}
